Usually IC50 stands for the concentration that gives 50% inhibition. A low value points to greater potency in that assay.

Results on four compounds are retold here after ChEMBL document CHEMBL1158094, “Paratunamides A-D, oxindole alkaloids from Cinnamodendron axillare” (J Nat Prod, 2006).

Values after ≈ are worked out from the molar mass of the structure shown.

This assay has as its system KB. Put plainly: Cytotoxicity against human KB cells. Format: functional, cell-based.

Regarding `C=C[C@H]1[C@H](O[C@@H]2O[C@H](CO)[C@@H](O)[C@H](O)[C@H]2O)OC=C2C(=O)N(CC[C@@]3(O)C(=O)Nc4ccccc43)[C@H](OC)C[C@H]21` [PARATUNAMIDE A], the IC50 was above 10 µg/mL. `C=C[C@H]1[C@H](O[C@@H]2O[C@H](CO)[C@@H](O)[C@H](O)[C@H]2O)OC=C2C(=O)N(CC[C@@]3(O)C(=O)Nc4ccccc43)C(=O)C[C@H]21` [PARATUNAMIDE B] showed a half-maximal inhibitory concentration (IC50) above 10 µg/mL. With `C=C[C@H]1[C@H](O[C@@H]2O[C@H](CO)[C@@H](O)[C@H](O)[C@H]2O)OC=C2C(=O)N(CC[C@]3(O)C(=O)Nc4ccccc43)C(=O)C[C@H]21` [PARATUNAMIDE C] the figure was above 10 µg/mL; with `C=C[C@H]1[C@H](O[C@@H]2O[C@H](CO)[C@@H](O)[C@H](O)[C@H]2O)OC=C2C(=O)N(CC[C@@]3(O)C(=O)Nc4ccccc43)[C@H](O)C[C@H]21` [PARATUNAMIDE D], 6 µg/mL (≈ 10.9 µM).
